Measurements as given in US20260356819A1, “OXOISOINDOLINYL-SUBSTITUTED […] DERIVATIVE AND USE THEREOF” (GLUETACS THERAPEUTICS (SHANGHAI) CO., LTD., priority 2023, published 2026).

Assays:
Assay type in all cases: cell-based
Conditions in all cases: compounds at 50 nM and 500 nM
[1] = molecular target: T1, IKZF2 (Homo sapiens, UniProt Q96SW2+Q9UKS7); assay: Western blot degradation of IKZF2 in hPBMCs (24 h)
T1 construct: The supernatant was aspirated as the extracted total cell protein; endogenous in cells; host or cells: human peripheral blood mononuclear cells (hPBMCs)
Procedure, shortened: (§1)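 Compounds were tested at 50 nM and 500 nM on hPBMCs (1×10^6 cells/mL) for 24 h, alongside DMSO. Proteins were detected by Western blot after denaturation at 95 °C; remaining protein computed from normalised band grayscale.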

[2] = molecular target: T2, WEE1 (Homo sapiens, UniProt P30291+Q96SW2); assay: Western blot degradation of WEE1 in hPBMCs (24 h)
T2 construct: The supernatant was aspirated as the extracted total cell protein; endogenous in cells; host or cells: human peripheral blood mononuclear cells (hPBMCs)
Procedure, shortened: as §1

[3] = molecular target: T3, CK1α (Homo sapiens, UniProt P48729+Q96SW2); assay: Western blot degradation of CK1α in hPBMCs (24 h)
T3 construct: The supernatant was aspirated as the extracted total cell protein; endogenous in cells; host or cells: human peripheral blood mononuclear cells (hPBMCs)
Procedure, shortened: as §1

[4] = molecular target: T4, IKZF1 (Homo sapiens, UniProt Q13422+Q96SW2); assay: Western blot degradation of IKZF1 in hPBMCs (24 h)
T4 construct: The supernatant was aspirated as the extracted total cell protein; endogenous in cells; host or cells: human peripheral blood mononuclear cells (hPBMCs)
Procedure, shortened: as §1

[5] = molecular target: T5, GSPT1 (Homo sapiens, UniProt P15170+Q96SW2); assay: Western blot degradation of GSPT1 in hPBMCs (24 h)
T5 construct: The supernatant was aspirated as the extracted total cell protein; endogenous in cells; host or cells: human peripheral blood mononuclear cells (hPBMCs)
Procedure, shortened: as §1

[6] = molecular target: T6, IKZF3 (Homo sapiens, UniProt Q96SW2+Q9UKT9); assay: Western blot degradation of IKZF3 in hPBMCs (24 h)
T6 construct: The supernatant was aspirated as the extracted total cell protein; endogenous in cells; host or cells: human peripheral blood mononuclear cells (hPBMCs)
Procedure, shortened: as §1

T4 sequence (Q13422 whole entry): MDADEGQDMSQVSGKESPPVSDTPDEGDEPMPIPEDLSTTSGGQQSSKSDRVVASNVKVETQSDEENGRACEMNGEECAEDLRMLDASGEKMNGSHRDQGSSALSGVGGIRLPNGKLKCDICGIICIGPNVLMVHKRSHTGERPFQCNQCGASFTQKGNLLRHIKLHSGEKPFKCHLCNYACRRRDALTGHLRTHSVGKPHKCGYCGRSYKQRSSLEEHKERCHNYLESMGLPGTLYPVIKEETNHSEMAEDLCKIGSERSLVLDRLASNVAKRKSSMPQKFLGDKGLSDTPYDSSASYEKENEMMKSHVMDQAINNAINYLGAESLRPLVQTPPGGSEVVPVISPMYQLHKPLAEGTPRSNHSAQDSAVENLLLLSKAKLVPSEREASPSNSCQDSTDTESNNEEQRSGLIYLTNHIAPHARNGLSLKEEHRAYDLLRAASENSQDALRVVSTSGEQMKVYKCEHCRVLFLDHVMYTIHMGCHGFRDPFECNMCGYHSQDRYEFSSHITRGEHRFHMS
T4 sequence (Q96SW2 whole entry): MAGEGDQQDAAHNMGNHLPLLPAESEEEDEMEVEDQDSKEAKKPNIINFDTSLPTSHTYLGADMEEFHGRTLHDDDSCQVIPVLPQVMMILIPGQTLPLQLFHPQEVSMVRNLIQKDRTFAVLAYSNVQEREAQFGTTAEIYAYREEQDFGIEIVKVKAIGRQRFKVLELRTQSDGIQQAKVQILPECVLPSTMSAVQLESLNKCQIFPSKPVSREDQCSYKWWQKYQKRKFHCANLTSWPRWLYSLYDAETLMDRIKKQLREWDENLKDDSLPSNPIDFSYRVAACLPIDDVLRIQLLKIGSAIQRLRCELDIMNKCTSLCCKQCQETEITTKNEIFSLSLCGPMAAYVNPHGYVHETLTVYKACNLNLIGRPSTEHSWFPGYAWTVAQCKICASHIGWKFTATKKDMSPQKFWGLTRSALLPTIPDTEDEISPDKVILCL
T4 sequence (Q16531 whole entry partner): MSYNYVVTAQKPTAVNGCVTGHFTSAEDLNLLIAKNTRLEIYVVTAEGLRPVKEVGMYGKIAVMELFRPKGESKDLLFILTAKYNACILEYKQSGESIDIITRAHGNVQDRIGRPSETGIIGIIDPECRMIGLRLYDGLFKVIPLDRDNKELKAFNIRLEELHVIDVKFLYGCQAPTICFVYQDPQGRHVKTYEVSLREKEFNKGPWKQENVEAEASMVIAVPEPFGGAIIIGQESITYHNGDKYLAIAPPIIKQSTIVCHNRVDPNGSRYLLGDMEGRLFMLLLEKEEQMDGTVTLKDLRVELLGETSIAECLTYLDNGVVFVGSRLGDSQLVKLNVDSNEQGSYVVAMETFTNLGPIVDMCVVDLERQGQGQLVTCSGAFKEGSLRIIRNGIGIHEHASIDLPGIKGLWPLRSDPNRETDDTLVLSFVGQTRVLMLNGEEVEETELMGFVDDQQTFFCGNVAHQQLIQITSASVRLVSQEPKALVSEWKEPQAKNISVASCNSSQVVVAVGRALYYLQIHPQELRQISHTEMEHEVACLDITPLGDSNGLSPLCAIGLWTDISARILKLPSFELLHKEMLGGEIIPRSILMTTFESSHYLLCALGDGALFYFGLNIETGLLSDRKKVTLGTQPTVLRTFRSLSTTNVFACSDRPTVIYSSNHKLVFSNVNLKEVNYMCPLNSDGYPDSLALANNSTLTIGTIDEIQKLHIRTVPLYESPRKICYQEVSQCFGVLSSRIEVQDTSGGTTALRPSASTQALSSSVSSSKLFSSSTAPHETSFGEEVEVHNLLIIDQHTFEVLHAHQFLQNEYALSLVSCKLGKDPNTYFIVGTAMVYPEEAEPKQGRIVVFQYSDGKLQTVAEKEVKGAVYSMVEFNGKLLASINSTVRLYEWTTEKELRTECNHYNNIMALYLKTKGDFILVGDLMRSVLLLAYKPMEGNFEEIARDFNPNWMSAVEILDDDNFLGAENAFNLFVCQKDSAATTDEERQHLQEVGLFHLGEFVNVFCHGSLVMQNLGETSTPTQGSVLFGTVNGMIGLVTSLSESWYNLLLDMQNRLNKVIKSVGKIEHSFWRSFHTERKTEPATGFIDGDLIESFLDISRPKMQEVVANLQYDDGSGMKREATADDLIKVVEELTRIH
T3 sequence (P48729 whole entry): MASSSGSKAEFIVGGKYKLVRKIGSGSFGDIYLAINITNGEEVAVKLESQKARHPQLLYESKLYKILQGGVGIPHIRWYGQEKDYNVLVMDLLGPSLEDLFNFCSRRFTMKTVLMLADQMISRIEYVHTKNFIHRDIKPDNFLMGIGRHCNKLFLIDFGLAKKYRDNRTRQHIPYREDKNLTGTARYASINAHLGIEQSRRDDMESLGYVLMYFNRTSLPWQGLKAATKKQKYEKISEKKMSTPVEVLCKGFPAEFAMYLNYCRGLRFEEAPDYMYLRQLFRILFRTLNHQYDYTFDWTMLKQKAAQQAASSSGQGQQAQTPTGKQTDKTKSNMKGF
T3 sequence (Q96SW2 whole entry): as the sequence (Q96SW2 whole entry) above
T3 sequence (Q16531 whole entry partner): as the sequence (Q16531 whole entry partner) above
T1 sequence (Q9UKS7 whole entry): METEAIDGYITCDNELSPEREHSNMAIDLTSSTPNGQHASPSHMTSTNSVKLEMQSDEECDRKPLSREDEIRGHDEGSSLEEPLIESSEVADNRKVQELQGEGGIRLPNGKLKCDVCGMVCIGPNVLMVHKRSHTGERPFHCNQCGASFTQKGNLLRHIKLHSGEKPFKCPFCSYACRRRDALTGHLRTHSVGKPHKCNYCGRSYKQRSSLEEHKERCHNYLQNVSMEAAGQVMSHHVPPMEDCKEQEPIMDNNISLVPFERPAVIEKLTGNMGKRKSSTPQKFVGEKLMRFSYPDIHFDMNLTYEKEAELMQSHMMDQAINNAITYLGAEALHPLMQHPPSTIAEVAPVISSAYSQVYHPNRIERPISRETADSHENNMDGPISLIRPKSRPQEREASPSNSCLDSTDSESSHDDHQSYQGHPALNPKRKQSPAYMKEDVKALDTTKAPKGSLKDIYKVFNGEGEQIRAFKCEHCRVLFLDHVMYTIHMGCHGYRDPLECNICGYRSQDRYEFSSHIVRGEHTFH
T1 sequence (Q96SW2 whole entry): as the sequence (Q96SW2 whole entry) above
T1 sequence (Q16531 whole entry partner): as the sequence (Q16531 whole entry partner) above
T5 sequence (P15170 whole entry): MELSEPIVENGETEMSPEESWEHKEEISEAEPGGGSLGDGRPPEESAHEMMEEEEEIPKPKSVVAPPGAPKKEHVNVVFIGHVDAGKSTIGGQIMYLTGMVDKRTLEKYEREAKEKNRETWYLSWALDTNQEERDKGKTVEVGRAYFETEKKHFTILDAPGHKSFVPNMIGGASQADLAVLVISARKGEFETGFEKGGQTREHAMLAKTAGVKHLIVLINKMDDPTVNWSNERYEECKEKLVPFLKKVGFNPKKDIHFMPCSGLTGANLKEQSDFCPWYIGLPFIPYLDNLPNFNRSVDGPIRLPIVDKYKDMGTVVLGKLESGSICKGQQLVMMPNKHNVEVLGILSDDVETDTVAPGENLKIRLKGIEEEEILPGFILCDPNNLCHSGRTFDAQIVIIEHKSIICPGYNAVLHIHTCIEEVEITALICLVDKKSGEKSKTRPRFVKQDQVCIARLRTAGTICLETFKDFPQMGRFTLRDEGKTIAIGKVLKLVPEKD
T5 sequence (Q96SW2 whole entry): as the sequence (Q96SW2 whole entry) above
T5 sequence (Q16531 whole entry partner): as the sequence (Q16531 whole entry partner) above
T2 sequence (P30291 whole entry): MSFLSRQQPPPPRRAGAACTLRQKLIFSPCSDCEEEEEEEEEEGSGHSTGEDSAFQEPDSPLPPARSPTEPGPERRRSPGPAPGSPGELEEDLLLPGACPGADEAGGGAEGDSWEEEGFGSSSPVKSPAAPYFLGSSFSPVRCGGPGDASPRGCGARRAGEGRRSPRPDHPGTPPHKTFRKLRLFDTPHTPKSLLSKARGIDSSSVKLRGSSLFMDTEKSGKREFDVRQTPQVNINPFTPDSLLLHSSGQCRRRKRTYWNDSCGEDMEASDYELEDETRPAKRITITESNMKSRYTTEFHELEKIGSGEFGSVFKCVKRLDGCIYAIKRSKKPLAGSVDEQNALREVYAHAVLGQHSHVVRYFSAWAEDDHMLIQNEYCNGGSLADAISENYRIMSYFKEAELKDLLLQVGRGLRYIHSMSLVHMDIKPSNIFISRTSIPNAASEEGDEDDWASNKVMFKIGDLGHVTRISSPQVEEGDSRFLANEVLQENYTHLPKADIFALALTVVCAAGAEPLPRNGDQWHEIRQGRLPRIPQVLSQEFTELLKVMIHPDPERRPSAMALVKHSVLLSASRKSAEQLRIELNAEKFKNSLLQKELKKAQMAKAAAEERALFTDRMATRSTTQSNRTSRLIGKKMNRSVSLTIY
T2 sequence (Q96SW2 whole entry): as the sequence (Q96SW2 whole entry) above
T2 sequence (Q16531 whole entry partner): as the sequence (Q16531 whole entry partner) above

SMILES	IKZF2 substrate protein remaining % [1]	WEE1 substrate protein remaining % [2]	CK1α substrate protein remaining % [3]	IKZF1 substrate protein remaining % [4]	GSPT1 substrate protein remaining % [5]	IKZF3 substrate protein remaining % [6]
O=C1CCN(N2Cc3cc(CN4CCC(c5cccc6c(F)cccc56)CC4)ccc3C2=O)C(=O)N1 [GT-07589, 1-(5-((4-(5-fluoronaphthalen-1-yl)piperidin-1-yl)methyl)-1-oxoisoindolin-2-yl)dihydropyrimidine-2,4(1H,3H)-dione]	B (80%< substrate protein remaining % ≤100%)	B (80%< substrate protein remaining % ≤100%)	B (80%< substrate protein remaining % ≤100%)	B (80%< substrate protein remaining % ≤100%)	A (0% ≤ substrate protein remaining % ≤80%)	B (80%< substrate protein remaining % ≤100%)
O=C1CCN(N2Cc3cc(CN4CCC(c5noc6ccccc56)CC4)ccc3C2=O)C(=O)N1 [GT-07642, 1-(5-((4-(benzo[d]isoxazol-3-yl)piperidin-1-yl)methyl)-1-oxoisoindolin-2-yl)dihydropyrimidine-2,4(1H,3H)-dione]	B (80%< substrate protein remaining % ≤100%)	B (80%< substrate protein remaining % ≤100%)	B (80%< substrate protein remaining % ≤100%)	B (80%< substrate protein remaining % ≤100%)	A (0% ≤ substrate protein remaining % ≤80%)	B (80%< substrate protein remaining % ≤100%)
O=C1CCN(N2C(=O)c3ccc(CN4CC=C(c5n[nH]c6cc(F)ccc56)CC4)cc3C2=O)C(=O)N1 [GT-07643, 2-(2,4-dioxotetrahydropyrimidin-1(2H)-yl)-5-((4-(6-fluoro-1H-indazol-3-yl)-3,6-dihydropyridin-1(2H)-yl)methyl)isoindoline-1,3-dione]	B (80%< substrate protein remaining % ≤100%)	B (80%< substrate protein remaining % ≤100%)	B (80%< substrate protein remaining % ≤100%)	B (80%< substrate protein remaining % ≤100%)	A (0% ≤ substrate protein remaining % ≤80%)	B (80%< substrate protein remaining % ≤100%)
O=C1CCN(N2Cc3cc(CN4CCC(c5cccc6cnccc56)CC4)ccc3C2=O)C(=O)N1 [GT-07644, 1-(5-((4-(isoquinolin-5-yl)piperidin-1-yl)methyl)-1-oxoisoindolin-2-yl)dihydropyrimidine-2,4(1H,3H)-dione]	B (80%< substrate protein remaining % ≤100%)	B (80%< substrate protein remaining % ≤100%)	B (80%< substrate protein remaining % ≤100%)	B (80%< substrate protein remaining % ≤100%)	A (0% ≤ substrate protein remaining % ≤80%)	B (80%< substrate protein remaining % ≤100%)
O=C1CCN(N2Cc3cc(CN4CCC(c5ccnc6cc(F)ccc56)CC4)ccc3C2=O)C(=O)N1 [GT-07645, 1-(5-((4-(7-fluoroquinolin-4-yl)piperidin-1-yl)methyl)-1-oxoisoindolin-2-yl)dihydropyrimidine-2,4(1H,3H)-dione]	B (80%< substrate protein remaining % ≤100%)	B (80%< substrate protein remaining % ≤100%)	B (80%< substrate protein remaining % ≤100%)	A (0% ≤ substrate protein remaining % ≤80%)	A (0% ≤ substrate protein remaining % ≤80%)	B (80%< substrate protein remaining % ≤100%)
O=C1CCN(N2C(=O)c3ccc(CN4CCC(N5CCCc6cc(F)ccc65)CC4)cc3C2=O)C(=O)N1 [GT-07681, 2-(2,4-dioxotetrahydropyrimidin-1(2H)-yl)-5-((4-(6-fluoro-3,4-dihydroquinolin-1(2H)-yl)piperidin-1-yl)methyl)isoindoline-1,3-dione]	B (80%< substrate protein remaining % ≤100%)	B (80%< substrate protein remaining % ≤100%)	B (80%< substrate protein remaining % ≤100%)	A (0% ≤ substrate protein remaining % ≤80%)	A (0% ≤ substrate protein remaining % ≤80%)	B (80%< substrate protein remaining % ≤100%)
O=C1CCN(N2C(=O)c3ccc(CN4CCC(N5CCOc6cc(F)ccc65)CC4)cc3C2=O)C(=O)N1 [GT-07682, 2-(2,4-dioxotetrahydropyrimidin-1(2H)-yl)-5-((4-(7-fluoro-2,3-dihydro-4H-benzo[b][1,4]oxazin-4-yl)piperidin-1-yl)methyl)isoindoline-1,3-dione]	B (80%< substrate protein remaining % ≤100%)	B (80%< substrate protein remaining % ≤100%)	B (80%< substrate protein remaining % ≤100%)	B (80%< substrate protein remaining % ≤100%)	A (0% ≤ substrate protein remaining % ≤80%)	B (80%< substrate protein remaining % ≤100%)
O=C1CCN(N2C(=O)c3ccc(CN4CCC(N5C(=O)COc6cc(F)ccc65)CC4)cc3C2=O)C(=O)N1 [GT-07683, 2-(2,4-dioxotetrahydropyrimidin-1(2H)-yl)-5-((4-(7-fluoro-3-oxo-2,3-dihydro-4H-benzo[b][1,4]oxazin-4-yl)piperidin-1-yl)methyl)isoindoline-1,3-dione]	B (80%< substrate protein remaining % ≤100%)	B (80%< substrate protein remaining % ≤100%)	B (80%< substrate protein remaining % ≤100%)	B (80%< substrate protein remaining % ≤100%)	A (0% ≤ substrate protein remaining % ≤80%)	B (80%< substrate protein remaining % ≤100%)
O=C1CCN(N2C(=O)c3ccc(CN4CCC(C5CCOc6cc(F)ccc65)CC4)cc3C2=O)C(=O)N1 (stereo not drawn) [GT-07684, 2-(2,4-dioxotetrahydropyrimidin-1(2H)-yl)-5-((4-(7-fluorochroman-4-yl)piperidin-1-yl)methyl)isoindoline-1,3-dione]	B (80%< substrate protein remaining % ≤100%)	B (80%< substrate protein remaining % ≤100%)	B (80%< substrate protein remaining % ≤100%)	B (80%< substrate protein remaining % ≤100%)	A (0% ≤ substrate protein remaining % ≤80%)	B (80%< substrate protein remaining % ≤100%)
O=C1CCN(N2C(=O)c3ccc(CN4CCC(=C5CCOc6cc(F)ccc65)CC4)cc3C2=O)C(=O)N1 [GT-07685, 2-(2,4-dioxotetrahydropyrimidin-1(2H)-yl)-5-((4-(7-fluorochroman-4-ylidene)piperidin-1-yl)methyl)isoindoline-1,3-dione]	B (80%< substrate protein remaining % ≤100%)	B (80%< substrate protein remaining % ≤100%)	B (80%< substrate protein remaining % ≤100%)	B (80%< substrate protein remaining % ≤100%)	A (0% ≤ substrate protein remaining % ≤80%)	B (80%< substrate protein remaining % ≤100%)
O=C1CCN(N2C(=O)c3ccc(CN4CCC(c5cccc6c(F)cccc56)CC4)cc3C2=O)C(=O)N1 [GT-07686, 2-(2,4-dioxotetrahydropyrimidin-1(2H)-yl)-5-((4-(5-fluoronaphthalen-1-yl)piperidin-1-yl)methyl)isoindoline-1,3-dione]	B (80%< substrate protein remaining % ≤100%)	B (80%< substrate protein remaining % ≤100%)	B (80%< substrate protein remaining % ≤100%)	B (80%< substrate protein remaining % ≤100%)	A (0% ≤ substrate protein remaining % ≤80%)	B (80%< substrate protein remaining % ≤100%)
